Data published in the supplement of paper PMC10307832.

Columns and labels:
Assay in all cases: relative viability (nuclei count vs DMSO), 5 days (fraction); higher = more cells survive
[1] = compound: CNC(=O)c1ccccc1Sc1ccc2c(/C=C/c3ccccn3)n[nH]c2c1 [Axitinib] + Cc1nc(Nc2ncc(C(=O)Nc3c(C)cccc3Cl)s2)cc(N2CCN(CCO)CC2)n1 [Dasatinib] (partner 0.075 µM)
How it was run: (§1)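 Lung cancer cell lines in 1536-well plates got either a single drug or a fixed anchor-drug dose together with five library-drug doses (not always all listed) in √10 steps, by pin tool, on the day after seeding. Nuclei were counted after 5 days, and relative viability is the treated-to-vehicle ratio of nuclei counts. Values are medians of duplicate plates.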

[2] = compound: Nc1nc(Nc2ccc3c(c2)CC[C@@H](N2CCCC2)CC3)nn1-c1cc2c(nn1)-c1ccccc1CCC2 [Bemcentinib] + Nc1ncn([C@H]2C[C@H](O)[C@@H](CO)O2)c(=O)n1 [Decitabine] (partner 2 µM)
How it was run: as §1

[3] = compound: CNC(=O)c1ccccc1Sc1ccc2c(/C=C/c3ccccn3)n[nH]c2c1 [Axitinib] + NC(=O)Nc1cc(-c2cccc(F)c2)sc1C(=O)N[C@H]1CCCNC1 [AZD7762] (partner 0.2 µM)
How it was run: as §1

[4] = compound: CNC(=O)c1ccccc1Sc1ccc2c(/C=C/c3ccccn3)n[nH]c2c1 [Axitinib] + N=C(N)NC(=N)NCCc1ccccc1 [Phenformin] (partner 250 µM)
How it was run: as §1

Cell Line	relative viability ([1]; first compound 0.005 µM)	relative viability ([1]; first compound 0.01581 µM)	relative viability ([1]; first compound 0.05 µM)	relative viability ([1]; first compound 0.1581 µM)	relative viability ([1]; first compound 0.5 µM)	relative viability ([2]; first compound 0.04 µM)	relative viability ([2]; first compound 0.1265 µM)	relative viability ([2]; first compound 0.4 µM)	relative viability ([2]; first compound 1.265 µM)	relative viability ([2]; first compound 4 µM)	relative viability ([3]; first compound 0.005 µM)	relative viability ([3]; first compound 0.01581 µM)	relative viability ([3]; first compound 0.05 µM)	relative viability ([3]; first compound 0.1581 µM)	relative viability ([3]; first compound 0.5 µM)	relative viability ([4]; first compound 0.005 µM)	relative viability ([4]; first compound 0.01581 µM)	relative viability ([4]; first compound 0.05 µM)	relative viability ([4]; first compound 0.1581 µM)	relative viability ([4]; first compound 0.5 µM)
201T	0.557	0.553	0.567	0.526	0.562	0.827	0.903	0.893	0.979	0.868	0.626	0.56	0.593	0.539	0.59	0.475	0.412	0.449	0.446	0.399
A549						0.248	0.247	0.319	0.296	0.26						0.204	0.198	0.217	0.149	0.216
A-427	0.69	0.644	0.807	0.697	0.769	0.569	0.525	0.502	0.57	0.559	0.805	0.77	0.807	0.718	0.887	0.356	0.29	0.416	0.323	0.289
ABC-1	0.738	0.686	0.486		0.638	0.899	1.23	1.03	0.835	1.14		0.725	0.896	0.822	0.461	0.268	0.239	0.222	0.21	0.241
BEN	0.293	0.264	0.314	0.365	0.263	0.696	0.784	0.762	0.629	0.677	0.633	0.622	0.694	0.68	0.618	0.268	0.29	0.246	0.236	0.262
CAL-12T	0.603	0.448	0.367	0.38	0.405						0.623	0.576	0.615	0.564	0.561	0.567	0.53	0.559	0.63	0.504
COR-L23	0.53	0.542	0.438	0.493	0.674	0.465	0.467	0.481	0.472	0.456						0.458	0.417	0.428	0.419	0.485
COR-L 105	0.318	0.327	0.417	0.303	0.415	0.593	0.721	0.678	0.67	0.667						0.605	0.4	0.527	0.388	0.547
ChaGo-K-1	0.611	0.552	0.583	0.423	0.611	0.566	0.537	0.538	0.536	0.556	0.912	0.862	0.908	0.868	0.886	0.467	0.428	0.506	0.437	0.469
EKVX	0.602	0.31	0.334	0.435	0.507	0.325	0.345	0.292	0.345	0.39	0.782	0.617	0.883	0.636	0.644	0.243	0.222	0.214	0.233	0.216
